Legend:
Type in all cases: cell-based, human
CD8+ T cell effectors = test: IFNγ expression measured by ELISA, CD8+ T cell effectors (class I peptides)
Experimental: As such, these experiments focus on confirming that the in vitro recognition of the novel class I and class II CMV epitopes predicted to be strong MHC binders by validated computer algorithms using T cells from CMV-positive healthy donors. Phenotypical analysis of CD4+ T cell effectors included a marker of activation (CD69) as well as T cell inflammatory cytokines (TNFα, IFNγ, and IL-2). Functional analysis of CD4+ and CD8+ T cell effectors was measured by proliferative epitope-specific responses via ^3H incorporation and IFNγ expression measured by ELISA, respectively.
(§1) These experiments focus on confirming the in vitro recognition of the novel class I and class II CMV epitopes predicted to be strong MHC binders by validated computer algorithms using T cells from CMV-positive healthy donors. Phenotypical analysis of CD4+ T cell effectors included a marker of activation (CD69) as well as T cell inflammatory cytokines (TNFα, IFNγ, and IL-2). Functional analysis of CD4+ and CD8+ T cell effectors was measured by proliferative epitope-specific responses via ^3H incorporation and IFNγ expression measured by ELISA, respectively.

PD-1 = PD-1 Taqman; conditions: for ΔCT (BB008) / ΔΔCT(BB008): Donor BB008; for ΔCT (BB008): No Pep 6.4; for ΔΔCT(BB008) / ΔΔCT(BB011) / ΔΔCT(BB013) / ΔΔCT(CMV001): relative to No Pep; for ΔCT (BB011) / ΔΔCT(BB011): Donor BB011; for ΔCT (BB011): No Pep 3.57; for ΔCT(BB013) / ΔΔCT(BB013): Donor BB013; for ΔCT(BB013): No Pep 4.745; for ΔCT(CMV001) / ΔΔCT(CMV001): Donor CMV001; for ΔCT(CMV001): No Pep 5.08
PD-L1 (a PD-1 ligand) = test: Surface expression of PD-L1; conditions: Donor CMV001 vs Donor BB008, FIG. 10
PD-L2 (a PD-1 ligand) = test: Surface expression of PD-L2; conditions: Donor CMV001 vs Donor BB008, FIG. 11
CD4+ T cell effectors = test: IFNg in CD4 cells (FACS); conditions: for immunogenicity (reflected by increased IFNg), CMV-infected subject vs healthy CMV+ subject: Donor CMV001 vs Donor BB008, FIG. 8; for IFNg stimulation (FACS data): over multiple HLA-type donors; for immunogenicity reflected by IFNg: six donors
Experimental: as §1

[1] = test system: CD4+ induced cells (antigen-stimulated T effector cells); test: Proliferation assay of CD4+ induced cells (3H incorporation); conditions: for stimulation index: as compared to cells without peptide
Experimental: as §1
Wells are then pulsed with 1 μCi of ^3H for the last 18 hours. Proliferation is then measured by calculating the absorption of ^3H on a beta counter. PHA is a positive control while APCs alone are the negative control. This translates into stimulation indices of 30 and 45.8 in antigen-specific proliferation assays as compared to cells without peptide.
Antigen-stimulated T effector cells are incubated with autologous, irradiated total peripheral blood mononuclear cells for 96 hours. Wells are pulsed with 1 μCi of ^3H for the last 18 hours. Proliferation is then measured by calculating the absorption of ^3H on a beta counter. APCs alone are the negative control.
Data from the six donors SA001, SA005, SA006, BB006, BB008, CMV001, BB011, and BB013 are shown. No peptide versus 3DR (P<0.001); no peptide versus 4DR (P<0.05); 1DR versus 3DR (P<0.05); 2DR versus 3DR (P<0.01); and 3DR versus 6DR (P<0.05).

[2] = test system: PD-1 (programmed cell death-1); test: Surface expression of PD-1; conditions: Donor CMV001 vs Donor BB008, FIG. 9
Excerpt: This correlates with latency versus infection in the two subjects.

enriched CD4+ cells = test: Intracellular IL-2 expression in enriched CD4+ cells; conditions: for expression of IL-2 as compared to no peptide: FIG. 2, in words; for expression of IL-2 in CD4+ cells: FIG. 2, day 17, cells without peptide 3.18%
Experimental: as §1
Enriched CD4+ cells are incubated with peptide-pulsed irradiated autologous PBMCs, restimulated with peptide on day 7, stimulated with low-dose IL-2 (20 U/ml) on day 9, and then evaluated for intracellular cytokine production on day 17. FIG. 2A illustrates no peptide, while FIGS. 2B and 2C show stimulation by peptides 1DR and 4DR, respectively.

enriched CD4 cells = test: Intracellular TNFα in CD4 cells (FACS); conditions: for immunogenicity (reflected by increased TNFα), CMV-infected subject vs healthy CMV+ subject: Donor CMV001 vs Donor BB008, FIG. 7; for TNFα synthesis as compared to control: FIG. 4, donors SA005 and SA006, in words; for TNFα stimulation (FACS data): over multiple HLA-type donors; for immunogenicity reflected by TNFα: six donors
Experimental: as §1
In addition, these cells are all chemokine receptor CCR7 negative, reflecting their T effector status.
Enriched CD4 cells are incubated with peptide-pulsed irradiated autologous peripheral blood mononuclear cells, restimulated with peptide on day 7, stimulated with low-dose IL-2 (20 U/ml) on day 10 and 14, and then evaluated for intracellular cytokine production on day 17.

[3] = excluding CMV-infected subject (CMV001), FIG. 12
[4] = including CMV-infected subject (CMV001), FIG. 13
[5] = FIG. 1, 96 hours with autologous irradiated PBMCs, 3H last 18 hours

Sequence	ΔCT (BB008) (PD-1)	ΔΔCT(BB008) (PD-1)	ΔCT (BB011) (PD-1)	ΔΔCT(BB011) (PD-1)	ΔCT(BB013) (PD-1)	ΔΔCT(BB013) (PD-1)	ΔCT(CMV001) (PD-1)	ΔΔCT(CMV001) (PD-1)	surface expression of PD-L1, CMV-infected subject vs healthy CMV+ subject (PD-L1 (a PD-1 ligand))	surface expression of PD-L2, CMV-infected subject vs healthy CMV+ subject (PD-L2 (a PD-1 ligand))	immunogenicity (reflected by increased IFNg), CMV-infected subject vs healthy CMV+ subject (CD4+ T cell effectors)	IFNg stimulation (FACS data) (CD4+ T cell effectors)	immunogenicity reflected by IFNg (CD4+ T cell effectors; [3])	surface expression of PD-1, CMV-infected subject vs healthy CMV+ subject [2]	immunogenicity (reflected by increased TNFα), CMV-infected subject vs healthy CMV+ subject (enriched CD4 cells)	TNFα stimulation (FACS data) (enriched CD4 cells)	immunogenicity reflected by TNFα (enriched CD4 cells; [3])	other results
YTSAFVFPT [CMV65182-190, human CMV pp65-derived class I peptide, Human (A2)]																		immunogenicity among the class I peptides (CD8+ T cell effectors; IFNγ ELISA): most immunogenic; IFNγ measured by ELISA (mean) (CD8+ T cell effectors; class I peptides, T cells from CMV-positive healthy donors): 1999 pg/mL
MISVLGPISGHVLKA [2DR, human CMV pp65-derived class II peptide, Human (DRB1)]	5.525	−0.875	2.94	−0.63	5.26	0.515	5.005	−0.075										
AGILARNLVPMVATV [6DR, human CMV pp65-derived class II peptide, Human (DRB1)]			3.845	0.275	5.05	0.305			more surface expression of PD-L1	more surface expression of PD-L2								
SGKLFMHVTLGSDVE [5DR, human CMV pp65-derived class II peptide, Human (DRB1)]	6.26	−0.14	3.97	0.4	6.73	1.985	3.53	−1.55	more surface expression of PD-L1	more surface expression of PD-L2								
DVYYTSAFVFPTKDV [4DR]	1.185	−5.215	3.345	−0.225	4.57	−0.175	1.165	−3.915	more surface expression of PD-L1	more surface expression of PD-L2	greater than in a healthy CMV+ subject	peptide-specific TNFα and IFNg stimulation	increased TNFα and IFNg	more surface expression of PD-1	greater than in a healthy CMV+ subject	peptide-specific TNFα and IFNg stimulation	increased TNFα and IFNg	immunogenicity reflected by IFNg (CD4+ T cell effectors; [4]): increased TNFα and IFNg; proliferation, counts per minute [1, 5]: 15,572 cpm; stimulation index ([1]; FIG. 1): 45.8; expression of IL-2 as compared to no peptide (enriched CD4+ cells): stimulate expression of IL-2; expression of IL-2 in CD4+ cells (enriched CD4+ cells): 15.13%; TNFα synthesis as compared to control (enriched CD4 cells): stimulate TNFα synthesis; immunogenicity reflected by TNFα (enriched CD4 cells; [4]): increased TNFα and IFNg
HVRVSQPSLILVSQY [3DR, human CMV pp65-derived class II peptide, Human (DRB1)]	5.635	−0.765	4.08	0.51	5.995	1.25	2.545	−2.535			greater than in a healthy CMV+ subject	peptide-specific TNFα and IFNg stimulation	increased TNFα and IFNg	more surface expression of PD-1	greater than in a healthy CMV+ subject	peptide-specific TNFα and IFNg stimulation	increased TNFα and IFNg	stimulation index ([1]; first of two CMV+ healthy donors (FIG. 3)): 83.05; proliferation, counts per minute ([1]; first of two CMV+ healthy donors (FIG. 3; presumably Donor SA005)): 30,231.67 cpm; stimulation index ([1]; second of two CMV+ healthy donors (FIG. 3)): 147.03; proliferation, counts per minute ([1]; second of two CMV+ healthy donors (FIG. 3; presumably Donor SA006)): 49,648.33 cpm; functional response (proliferation data) ([1]; summary in words): leads to a functional response; expression of TNFα in CD4 cells (enriched CD4 cells; donor not given): 34.58%
MSIYVYALPLKMLNI [1DR, human CMV pp65-derived class II peptide, Human (DRB1)]	5.385	−1.015	3.67	0.1	5.74	0.995	3.635	−1.445	more surface expression of PD-L1	more surface expression of PD-L2	greater than in a healthy CMV+ subject	peptide-specific TNFα and IFNg stimulation	increased TNFα and IFNg	more surface expression of PD-1	greater than in a healthy CMV+ subject	peptide-specific TNFα and IFNg stimulation	increased TNFα and IFNg	immunogenicity reflected by IFNg (CD4+ T cell effectors; [4]): increased TNFα and IFNg; proliferation, counts per minute [1, 5]: 10,201 cpm; stimulation index ([1]; FIG. 1): 30; expression of IL-2 as compared to no peptide (enriched CD4+ cells): stimulate expression of IL-2; expression of IL-2 in CD4+ cells (enriched CD4+ cells): 39.58%; TNFα synthesis as compared to control (enriched CD4 cells): stimulate TNFα synthesis; expression of TNFα in CD4 cells (enriched CD4 cells; donor SA005): 15.9%; immunogenicity reflected by TNFα (enriched CD4 cells; [4]): increased TNFα and IFNg

Source: US20100111992A1, “CYTOM[…] AND METHODS OF USE THEREOF” (THE REGENTS OF THE UNIVERSITY OF CALIFORNIA, priority 2006, published 2010)
